In patent publication US20250213571A1, “TYK2 INHIBITORS AND USES THEREOF” (Alumis Inc., priority 2022, published 2025) one finds ring closure, isolated yield and Kd data, which are given here for 20 compounds.

Structures can show the parent of a compound that is named as a salt. Where two headings read alike, the source gives them in different places. Where only a bound is given, the exact number is not on record here.

The conditions of data set [1]: 14-membered ring.
The next data set deals with JAK1 JH2 (Homo sapiens (Human), UniProt P23458). The data set can be described thus: JAK1 JH2 binding (Kd, Table 2). Particulars: JH2 domain.
For the next data set, the target named is TYK2 JH1 (Homo sapiens (Human), UniProt P29597). The data set can be described thus: TYK2 JH1 binding (Kd, Table 2). Particulars: JH1 domain.
Data set [2] has as its target human TYK2 (JH2domain-pseudokinase) (Homo sapiens (Human), UniProt P29597). The data set can be described thus: TYK2 JH2 domain binding assay (KINOMEscan). The protocol: Binding constants for the compounds described herein against the JH2 domain were determined by the following protocol for a KINOMEscan® assay (DiscoveRx). A fusion protein of a partial length construct of human TYK2 (JH2domain-pseudokinase) (amino acids G556 to D888 based on reference sequence NP_003322.3) and the DNA binding domain of NFkB was expressed in transiently transfected HEK293 cells. From these HEK 293 cells, extracts were prepared in M-PER extraction buffer (Pierce) in the presence of Protease Inhibitor Cocktail Complete (Roche) and Phosphatase Inhibitor Cocktail Set II (Merck) per manufacturers' instructions. The TYK2 (JH2domain-pseudokinase) fusion protein was labeled with a chimeric double-stranded DNA tag containing the NFkB binding site fused to an amplicon for qPCR readout, which was added directly to the expression extract (the final concentration of DNA-tag in the binding reaction is 0.1 nM).
Streptavidin-coated magnetic beads (Dynal M280) were treated with a biotinylated small molecule ligand for 30 minutes at room temperature to generate affinity resins the binding assays. The liganded beads were blocked with excess biotin and washed with blocking buffer (SeaBlock (Pierce), 1% BSA, 0.05% Tween 20, 1 mM DTT) to remove unbound ligand and to reduce nonspecific binding.
The binding reaction was assembled by combining 16 μl of DNA-tagged kinase extract, 3.8 μl liganded affinity beads, and 0.18 μl test compound (PBS/0.05% Tween 20/10 mM DTT/0.1% BSA/2 μg/ml sonicated salmon sperm DNA)]. Extracts were used directly in binding assays without any enzyme purification steps at a ≥10,000-fold overall stock dilution (final DNA-tagged enzyme concentration <0.1 nM). Extracts were loaded with DNA-tag and diluted into the binding reaction in a two-step process. First extracts were diluted 1:100 in 1×binding buffer (PBS/0.05% Tween 20/10 mM DTT/0.1% BSA/2 […] sonicated salmon sperm DNA) containing 10 nM DNA-tag. This dilution was allowed to equilibrate at room temperature for 15 minutes and then subsequently diluted 1:100 in 1× binding buffer. Test compounds were prepared as 111× stocks in 100% DMSO. Kds were determined using an 11-point 3-fold compound dilution series with three DMSO control points. All compounds for Kd measurements were distributed by acoustic transfer (non-contact dispensing) in 100% DMSO. The compounds were then diluted directly into the assays such that the final concentration of DMSO was 0.9%. All reactions were performed in polypropylene 384-well plates. Each was a final volume of 0.02 mL. Assays were incubated with shaking for 1 hour at room temperature. Then the beads were pelleted and washed with wash buffer (1×PBS, 0.05% Tween 20) to remove displaced kinase and test compound. The washed based were resuspended in elution buffer (1 λPBS, 0.05% Tween […] non-biotinylated affinity ligand) and incubated at room temperature with shaking for 30 minutes. The kinase concentration in the eluates was measured by qPCR. qPCR reactions were assembled by adding 2.5 μL of kinase eluate to 7.5 μL of qPCR master mix containing […] amplicon primers and 0.15 μM amplicon probe. The qPCR protocol consisted of a 10 minute hot start at 95° C., followed by 35 cycles of 95° C. for 15 seconds, 60° C. for 1 minute.
Test compounds were prepared as 111× stocks in 100% DMSO. Kds were determined using an 11-point 3-fold compound dilution series with three DMSO control points. All compounds for Kd measurements were distributed by acoustic transfer (non-contact dispensing) in 100% DMSO. The compounds were then diluted directly into the assays such that the final concentration of DMSO was 0.9%. The Kds were determined using a compound top concentration of 30,000 nM. Kd measurements were performed in duplicate.
Binding constants (Kds) were calculated with a standard dose-response curve using the Hill equation: […]
The Hill Slope was set to −1. […]

TYK2 JH1, sequence (P29597 897-1176): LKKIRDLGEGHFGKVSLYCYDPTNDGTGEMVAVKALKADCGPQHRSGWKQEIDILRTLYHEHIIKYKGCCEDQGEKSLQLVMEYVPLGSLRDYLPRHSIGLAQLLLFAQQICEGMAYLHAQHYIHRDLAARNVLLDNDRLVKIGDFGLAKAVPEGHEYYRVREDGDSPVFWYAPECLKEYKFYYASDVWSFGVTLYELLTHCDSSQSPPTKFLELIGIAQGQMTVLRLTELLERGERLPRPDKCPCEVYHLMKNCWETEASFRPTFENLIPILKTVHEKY
JAK1 JH2, sequence (P23458 583-855): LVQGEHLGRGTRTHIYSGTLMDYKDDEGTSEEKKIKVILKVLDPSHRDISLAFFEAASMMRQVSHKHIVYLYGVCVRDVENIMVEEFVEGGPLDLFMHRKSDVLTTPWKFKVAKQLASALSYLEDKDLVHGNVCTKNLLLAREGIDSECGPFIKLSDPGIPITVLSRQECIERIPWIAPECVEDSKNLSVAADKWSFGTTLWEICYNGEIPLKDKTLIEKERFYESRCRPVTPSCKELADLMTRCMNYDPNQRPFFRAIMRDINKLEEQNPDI
human TYK2 (JH2domain-pseudokinase), sequence (P29597 556-888): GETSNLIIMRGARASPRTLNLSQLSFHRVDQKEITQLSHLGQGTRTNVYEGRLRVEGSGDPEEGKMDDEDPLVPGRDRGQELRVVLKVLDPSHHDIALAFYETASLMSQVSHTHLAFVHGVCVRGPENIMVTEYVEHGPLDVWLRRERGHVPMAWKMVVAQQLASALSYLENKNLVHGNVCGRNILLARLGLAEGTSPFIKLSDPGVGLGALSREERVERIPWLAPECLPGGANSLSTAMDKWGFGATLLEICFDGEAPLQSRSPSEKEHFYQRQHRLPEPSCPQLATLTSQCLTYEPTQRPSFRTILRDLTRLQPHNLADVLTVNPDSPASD

Take “tert-butyl N-methyl-N-[(12R)-12-methyl-10-oxo-14-oxa-2,4,5,7,11,22-hexaazapentacyclo[13.6.2.2^(3,6.0^(5,9.0^(19,23]pentacosa-1(21),3,6,8,15,17,19,22,24-nonaen-24-yl]carbamate”: in data set [1] (cn_pd bond, Pd2(dba)3/Xantphos/Cs2CO3, 1,4-dioxane, 95.0 mM, 80.0 °C), the ring closure, isolated yield stood at 86%.

Consider “tert-butyl N-methyl-N-[(14R)-14-methyl-16-oxo-12-oxa-2,7,8,15,19,23,24-heptaazapentacyclo[15.5.2.1^(3,10.0^(5,9.0^(20,24]pentacosa-1(23),3(25),4,6,9,17,19,21-octaen-21-yl]carbamate”, for which the ring closure, isolated yield in data set [1] (cn_pd bond, Pd2(dba)3/BINAP/Cs2CO3, 1,4-dioxane, 23.0 mM, 80.0 °C) amounted to 71%.

`CNc1nc2cnc3cn2c1C(=O)N[C@H](C)COCc1cc(c2nnn(C)c2c1)N3`: the ring closure, isolated yield in data set [1] (from CNc1nc2cnc(Br)cn2c1C(=O)N[C@H](C)COCc1cc(N)c2nnn(C)c2c1, cn_pd bond, RuPhos Pd G3/Cs2CO3, dioxane, 62.0 mM, 100.0 °C, 16.0 h) came out at 10%.

The compound “tert-butyl N-methyl-N-[(12R)-12-methyl-10-oxo-2,4,5,7,11,14,18-heptaazapentacyclo[13.6.2.2^(3,6.0^(5,9.0^(19,23]pentacosa-1(21),3,6,8,15,17,19,22,24-nonaen-24-yl]carbamate” returned a ring closure, isolated yield in data set [1] (cn_pd bond, Pd2(dba)3/Xantphos/Cs2CO3, 1,4-dioxane, 85.0 mM, 90.0 °C) of 62%.

Turning to “tert-butyl N-methy 1-N-[(12R)-12-methyl-10-oxo-14-oxa-2,4,5,7,11,20-hexaazapentacyclo [13.6.2.2^{3,6}0.^{5,9}0.^{19,23}]pentacosa 1(21),3,6,8,15,17,19,22,24-nonaen-24-yl]carbamate”, in data set [1] (cn_pd bond, Pd2(dba)3/Xantphos, 1,4-dioxane, 34.0 mM, 80.0 °C), the ring closure, isolated yield came to 66%.

`C[C@@H]1COCc2cc(c3nnn(C)c3c2)Nc2cc(N(C)C(=O)OC(C)(C)C)n3ncc(c3n2)C(=O)O1`: the ring closure, isolated yield in data set [1] (from C[C@@H](O)COCc1cc(Nc2cc(N(C)C(=O)OC(C)(C)C)n3ncc(C(=O)O)c3n2)c2nnn(C)c2c1, ester bond, DIAD/PPh3, DCM, 20.0 mM, 16.0 h) turned out to be 52%.

For orientation: Kd means the free concentration of one partner at which half of the binding sites on the other are occupied at equilibrium, for simple one-to-one binding. A high value points to lower affinity. Consider `CNc1cc2nc3c(cnn13)C(=O)NC(C(F)(F)F)COCc1cc(c3nnn(C)c3c1)N2` (stereo not drawn) [Compound 92], for which the dissociation constant (Kd) is 10000 to 30000 nM at JAK1 JH2, no less than 30000 nM on TYK2 JH1 and less than 10 nM in data set [2].

As to `C[C@@H]1COCc2cc(cn3ccnc23)Nc2cc(N(C)C(=O)OC(C)(C)C)c3ncc(n3n2)C(=O)N1`, the ring closure, isolated yield in data set [1] (from C[C@H](COCc1cc(N)cn2ccnc12)NC(=O)c1cnc2c(N(C)C(=O)OC(C)(C)C)cc(Cl)nn12, cn_pd bond, Pd2(dba)3/Xantphos/Cs2CO3, 1,4-dioxane, 80.0 °C) was 34%.

In turn, “tert-Butyl ((7R,E)-7-(hydroxymethyl)-3^1-methyl-9-oxo-3^1H-5-oxa-2,8-diaza-1(6,3),3(4,6)-diimidazo[1,2-b]pyridazinacyclononaphane-1^8-yl)(methyl)carbamate” yielded a ring closure, isolated yield in data set [1] (cn_pd bond, Pd2(dba)3/BINAP/Cs2CO3, dioxane, 10.0 mM) of 25%.

Consider “(R,1^3E,1^4E)-3′,7-Dimethyl-1^7-(methylamino)-3^1H-5-oxa-2,8-diaza-1(5,3)-pyrazolo[1,5-a]pyrimidina-3(7,5)-indazolacyclononaphan-9-one [Compound 13]”, for which the Kd at JAK1 JH2 was 10000 to 30000 nM; at TYK2 JH1 it was 1000 to 10000 nM; in data set [2] it was less than 10 nM.

Regarding `CNc1cc2nc3c(cnn13)C(=O)N[C@H](C)COCc1cc(c3c(c1)ncn3C)N2` [Compound 9, (R,1^3E,1^4E)-3^1,7-Dimethyl-1^7-(methylamino)-3^1H-5-oxa-2,8-diaza-1(5,3)-pyrazolo[1,5-a]pyrimidina-3(7,5)-benzo[d]imidazolacyclononaphan-9-one], the Kd was 1000 to 10000 nM on JAK1 JH2, no less than 30000 nM on TYK2 JH1 and less than 10 nM in data set [2].

In data set [1] (cn_pd bond, Pd2(dba)3/Xantphos/Cs2CO3, 1,4-dioxane, 36.5 mM, 100.0 °C), “(14R)-19-[(4-methoxyphenyl)methyl]-21-([(4-methoxyphenyl)methyl](methyl)amino-7,14-dimethyl-12-oxa-2,5,6,7,15,18,19,22,23-nonaazapentacyclo[15.5.2.1^(3,10.0^(4,8.0^(20,24]pentacosa-1(23),3(25),4(8),5,9,17,20(24),21-octaen-16-one” returned a ring closure, isolated yield of 74%.

`CNc1cc2nn3c(cnc13)C(=O)N[C@H](C)COCc1cc(cc3nc[nH]c13)N2` [Compound 97, (14R)-14-methyl-21-(methylamino)-12-oxa-2,6,8,15,19,23,24-heptaazapentacyclo[15.5.2.1^(3,10.0^(5,9.0^(20,24]pentacosa-1(23),3(25),4,6,9,17,19,21-octaen-16-one hydrochloride]: the Kd at JAK1 JH2 is 10 to 1000 nM; at TYK2 JH1 it was 1000 to 10000 nM; in data set [2] it was less than 10 nM.

Turning to `CNc1cc2nn3c(cnc13)C(=O)N[C@H](C)COCc1cc(cc3[nH]ncc13)N2` [Compound 96, (14R)-14-methyl-21-(methylamino)-12-oxa-2,6,7,15,19,23,24-heptaazapentacyclo[15.5.2.1^(3,10.0^(5,9.0^(20,24]pentacosa-1(23),3(25),4,7,9,17,19,21-octaen-16-one hydrochloride], the Kd at JAK1 JH2 is 10 to 1000 nM; on TYK2 JH1 it was 1000 to 10000 nM; in data set [2], less than 10 nM.

With `CNc1cc2nc3c(cnn13)C(=O)NC(C(F)(F)F)COCc1cc(c3c(c1)nnn3C)N2` (stereo not drawn) [Compound 95], the dissociation constant (Kd) at JAK1 JH2 is no less than 30000 nM; at TYK2 JH1 it was no less than 30000 nM; in data set [2] it was less than 10 nM.

As to `CNc1cc2nn3c(cnc13)C(=O)N[C@H](C)COc1cnnc3ccc(cc13)N2` [Compound 80], the Kd (at JAK1 JH2; at TYK2 JH1; in data set [2]) was no less than 30000 nM each time.

On to `CNc1cc2nn3c(cnc13)C(=O)N[C@H](C)COc1ccnc3ccc(cc13)N2` [Compound 60], for which the results for the dissociation constant (Kd) (on JAK1 JH2; at TYK2 JH1; in data set [2]) were 10 to 1000 nM, 10000 to 30000 nM and less than 10 nM, respectively.

As for `CNc1cc2nc3c(cnn13)C(=O)N[C@H](C(C)(C)O)COCc1cc(c3nnn(C)c3c1)N2` [Compound 16], the results for the dissociation constant (Kd) (on JAK1 JH2; on TYK2 JH1; in data set [2]) were no less than 30000 nM, no less than 30000 nM and less than 10 nM, respectively.

Consider `CNc1cc2nc3c(cnn13)C(=O)O[C@H](C)COCc1cc(c3nnn(C)c3c1)N2` [Compound 4, (R,1^3E,1^4E)-3^1,7-dimethyl-1^7-(methylamino)-3^1H-5,8-dioxa-2-aza-1(5,3),3(4,6)-dipyrazolo [1,5-a]pyrimidinacyclononaphan-9-one], for which the results for the dissociation constant (Kd) (on JAK1 JH2; at TYK2 JH1; in data set [2]) were 1000 to 10000 nM, no less than 30000 nM and less than 10 nM, respectively.

For `CNc1cc2nn3c(cnc13)C(=O)N[C@H](C)COCc1cc(c3cnn(C)c3c1)N2` [Compound 12, (7R,E)-3^1,7-Dimethyl-1^8-(methylamino)-3^1H-5-oxa-2,8-diaza-1(6,3)-imidazo[1,2-b]pyridazina-3(4,6)-indazolacyclononaphan-9-one], the results for the Kd (at JAK1 JH2; at TYK2 JH1; in data set [2]) were 10 to 1000 nM, 1000 to 10000 nM and less than 10 nM, respectively.
